{"source": "ChEMBL document CHEMBL1136291", "about": "“Synthesis of C-8 methanesulphonate substituted pyrrolobenzodiazepines as potential antitumour agents” (2003)", "key": {"SNB-75": {"system": "SNB-75", "experiment": "In vitro antitumor activity against human CNS SNB-75 cell line", "assay_type": "functional"}, "CCRF-CEM": {"system": "CCRF-CEM", "experiment": "In vitro antitumor activity against human leukemia CCRF-CEM cell line", "assay_type": "functional"}, "SR": {"system": "SR", "experiment": "In vitro antitumor activity against human leukemia SR cell line", "assay_type": "functional"}, "OVCAR-4": {"system": "OVCAR-4", "experiment": "In vitro antitumor activity against human ovarian OVCAR-4 cell line", "assay_type": "functional"}, "NCI-H226": {"system": "NCI-H226", "experiment": "In vitro antitumor activity against human non-small cell lung NCI-H226 cell line", "assay_type": "functional"}, "UACC-62": {"system": "UACC-62", "experiment": "In vitro antitumor activity against human melanoma UACC-62 cell line", "assay_type": "functional"}, "TK-10": {"system": "TK-10", "experiment": "In vitro antitumor activity against human renal TK-10 cell line", "assay_type": "functional"}, "M14": {"system": "M14", "experiment": "In vitro antitumor activity against human melanoma M14 cell line", "assay_type": "functional"}, "UO-31": {"system": "UO-31", "experiment": "In vitro antitumor activity against human renal UO-31 cell line", "assay_type": "functional"}, "A498": {"system": "A498", "experiment": "In vitro antitumor activity against human renal A498 cell line", "assay_type": "functional"}, "HCT-15": {"system": "HCT-15", "experiment": "In vitro antitumor activity against human Colon HCT-15 cell line", "assay_type": "functional"}, "NCI-H23": {"system": "NCI-H23", "experiment": "In vitro antitumor activity against human non-small cell lung NCI-H23 cell line"}, "CAKI-1": {"system": "CAKI-1", "experiment": "In vitro antitumor activity against human renal CAKI-1 cell line", "assay_type": "functional"}, "MDA-MB-231": {"system": "MDA-MB-231", "experiment": "In vitro antitumor activity against human breast MDA-MB-231/ATCC cell line", "assay_type": "functional"}, "LOX IMVI": {"system": "LOX IMVI", "experiment": "In vitro antitumor activity against human melanoma […] cell line", "assay_type": "functional"}, "UACC-257": {"system": "UACC-257", "experiment": "In vitro antitumor activity against human melanoma UACC-257 cell line", "assay_type": "functional"}, "SW-620": {"system": "SW-620", "experiment": "In vitro antitumor activity against human Colon SW-620 cell line", "assay_type": "functional"}, "HCT-116": {"system": "HCT-116", "experiment": "In vitro antitumor activity against human Colon HCT116 cell line", "assay_type": "functional"}, "NCI/ADR-RES": {"system": "NCI/ADR-RES", "experiment": "In vitro antitumor activity against human breast NCI/ADR-RES cell line", "assay_type": "functional"}, "OVCAR-3": {"system": "OVCAR-3", "experiment": "In vitro antitumor activity against human ovarian OVCAR-3 cell line", "assay_type": "functional"}, "SK-MEL-5": {"system": "SK-MEL-5", "experiment": "In vitro antitumor activity against human melanoma SK-MEL-5 cell line", "assay_type": "functional"}, "NCI-H522": {"system": "NCI-H522", "experiment": "In vitro antitumor activity against human non-small cell lung NCI-H522 cell line", "assay_type": "functional"}, "U-251": {"system": "U-251", "experiment": "In vitro antitumor activity against human CNS U251 cell line", "assay_type": "functional"}, "Malme-3M": {"system": "Malme-3M", "experiment": "In vitro antitumor activity against human melanoma MALME-3M cell line", "assay_type": "functional"}, "786-0": {"system": "786-0", "experiment": "In vitro antitumor activity against human renal 786-0 cell line", "assay_type": "functional"}, "SF-539": {"system": "SF-539", "experiment": "In vitro antitumor activity against human CNS SF-539 cell line", "assay_type": "functional"}, "ACHN": {"system": "ACHN", "experiment": "In vitro antitumor activity against human renal ACHN cell line", "assay_type": "functional"}, "RPMI-8226": {"system": "RPMI-8226", "experiment": "In vitro antitumor activity against human leukemia RPMI-8226 cell line", "assay_type": "functional"}}, "data": [{"molecule": "COc1cc2c(cc1OCCCOS(C)(=O)=O)N=C[C@@H]1CCCN1C2=O", "values": [{"measurement": "GI50", "setting": "SNB-75", "value": 94.7, "unit": "µM"}, {"measurement": "GI50", "setting": "CCRF-CEM", "value": 52.8, "unit": "µM"}, {"measurement": "GI50", "setting": "SR", "value": 62.9, "unit": "µM"}, {"measurement": "GI50", "setting": "OVCAR-4", "value": 70.3, "unit": "µM"}]}, {"molecule": "COc1cc2c(cc1OCCOS(C)(=O)=O)N=C[C@@H]1CCCN1C2=O", "values": [{"measurement": "GI50", "setting": "NCI-H226", "value": 15.4, "unit": "µM"}, {"measurement": "GI50", "setting": "UACC-62", "value": 19.4, "unit": "µM"}, {"measurement": "GI50", "setting": "TK-10", "value": 18.1, "unit": "µM"}, {"measurement": "GI50", "setting": "M14", "value": 18.7, "unit": "µM"}, {"measurement": "GI50", "setting": "UO-31", "value": 15.2, "unit": "µM"}, {"measurement": "GI50", "setting": "CCRF-CEM", "value": 14.5, "unit": "µM"}, {"measurement": "GI50", "setting": "A498", "value": 17.1, "unit": "µM"}, {"measurement": "GI50", "setting": "HCT-15", "value": 16.5, "unit": "µM"}, {"measurement": "GI50", "setting": "NCI-H23", "value": 12.2, "unit": "µM"}, {"measurement": "GI50", "setting": "CAKI-1", "value": 17.7, "unit": "µM"}, {"measurement": "GI50", "setting": "MDA-MB-231", "value": 16.5, "unit": "µM"}, {"measurement": "GI50", "setting": "LOX IMVI", "value": 15.7, "unit": "µM"}, {"measurement": "GI50", "setting": "UACC-257", "value": 18.2, "unit": "µM"}, {"measurement": "GI50", "setting": "SW-620", "value": 14.6, "unit": "µM"}, {"measurement": "GI50", "setting": "HCT-116", "value": 18.5, "unit": "µM"}, {"measurement": "GI50", "setting": "NCI/ADR-RES", "value": 13.5, "unit": "µM"}, {"measurement": "GI50", "setting": "OVCAR-3", "value": 16.3, "unit": "µM"}, {"measurement": "GI50", "setting": "SK-MEL-5", "value": 16.9, "unit": "µM"}, {"measurement": "GI50", "setting": "SR", "value": 11.1, "unit": "µM"}, {"measurement": "GI50", "setting": "NCI-H522", "value": 10.9, "unit": "µM"}, {"measurement": "GI50", "setting": "U-251", "value": 17.1, "unit": "µM"}, {"measurement": "GI50", "setting": "Malme-3M", "value": 13.6, "unit": "µM"}, {"measurement": "GI50", "setting": "786-0", "value": 17, "unit": "µM"}, {"measurement": "GI50", "setting": "SF-539", "value": 18.6, "unit": "µM"}, {"measurement": "GI50", "setting": "ACHN", "value": 16, "unit": "µM"}, {"measurement": "GI50", "setting": "RPMI-8226", "value": 12.2, "unit": "µM"}]}]}
